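Values below derive from 48-hour exposures of cells grown in 96-well plates, with endpoints linearly interpolated between the two concentrations bracketing the appropriate inhibition level. Abbreviation: GI50, concentration required for 50% inhibition of growth. TGI is the concentration that stops growth completely.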
Assays:
Assay in all cases: inhibition of tumour cell growth, NCI panel, 48 h
NCI-H460 lung = system: NCI-H460 lung
SF-295 CNS = system: SF-295 CNS
MALME-3M melanoma = system: MALME-3M melanoma
RPMI-8226 leukemia = system: RPMI-8226 leukemia
NCI-H23 lung = system: NCI-H23 lung
NCI-H522 lung = system: NCI-H522 lung
786-0 renal = system: 786-0 renal
RXF 393 renal = system: RXF 393 renal
U251 CNS = system: U251 CNS
MDA-MB-231 breast = system: MDA-MB-231 breast

Compound | TGI (NCI-H460 lung) | TGI (SF-295 CNS) | TGI (MALME-3M melanoma) | TGI (RPMI-8226 leukemia) | TGI (NCI-H23 lung) | TGI (NCI-H522 lung) | TGI (786-0 renal) | TGI (RXF 393 renal) | TGI (U251 CNS) | GI50 (U251 CNS) | GI50 (NCI-H460 lung) | GI50 (RPMI-8226 leukemia) | GI50 (MDA-MB-231 breast) | TGI (MDA-MB-231 breast) | GI50 (NCI-H23 lung) | GI50 (NCI-H522 lung) | GI50 (786-0 renal) | GI50 (RXF 393 renal) | GI50 (SF-295 CNS) | GI50 (MALME-3M melanoma)
CCOc1cccc2cccnc12 | > 100 µM | > 100 µM | > 100 µM | > 100 µM | > 100 µM | > 100 µM | > 100 µM | > 100 µM |  |  |  |  |  |  |  |  |  |  |  | 
COc1ncn(C2C=C(CO)C(O)C2O)c(=O)n1 (stereo not given) | > 100 µM |  | > 100 µM | > 100 µM |  | > 100 µM | > 100 µM | > 100 µM | > 100 µM |  |  |  |  |  |  |  |  |  |  | 
COC(=O)C1=C(O)C(C(=O)OC)[C@@]2(O)[C@@H](C(=O)OC)C(c3ccccc3C(F)(F)F)C[C@@H]1[C@@H]2C(=O)OC (stereo not given in full) | 10.5 µM |  |  | > 100 µM | 11.6 µM | 33.2 µM | 16.4 µM | 7.65 µM | 7.28 µM | 2.01 µM | 3.11 µM | 2.4 µM | 7.99 µM | 22.4 µM | 3.44 µM | 16.8 µM | 4.49 µM | 3.11 µM |  | 
CCOC(=O)C(=C=Cc1cccs1)C(=O)c1ccccc1 | 46 µM | 31.9 µM | 29.3 µM | 44.5 µM | 28.8 µM | 28.3 µM | 29.5 µM |  | 31.3 µM |  |  |  |  |  |  |  |  |  |  | 
COC(=O)C(=O)C(C(=O)C(=O)Nc1ccc(Cl)cc1Cl)c1nc2ccc(Cl)cc2[nH]c1=O (stereo not given) | > 100 µM | > 100 µM |  |  | > 100 µM | > 100 µM | > 100 µM |  | > 100 µM |  |  |  |  | > 100 µM |  |  |  |  |  | 
CC(=O)OCC1OC(n2c(-c3ccc(N)cc3)cc(-c3ccco3)c(C#N)c2=O)C(OC(C)=O)C(OC(C)=O)C1OC(C)=O (stereo not given) |  | > 50 µM | > 50 µM |  | > 50 µM | > 50 µM | > 50 µM | > 50 µM | 29.8 µM |  |  |  |  |  |  |  |  |  |  | 
CCCCCCCCOCC(O)COC (stereo not given) | > 100 µM | > 100 µM | > 100 µM | > 100 µM | > 100 µM |  | > 100 µM |  | > 100 µM |  |  |  |  |  |  |  |  |  |  | 
O=C(O)C(=O)/C=C\c1ccc(Cl)cc1 | > 100 µM | > 100 µM | > 100 µM | > 100 µM | > 100 µM | > 100 µM | > 100 µM | > 100 µM | > 100 µM |  |  |  |  |  |  |  |  |  |  | 
CC(C)n1c2c(c3ccccc3c1=O)C(=O)c1ccccc1-2 |  | > 100 µM | > 100 µM | > 100 µM | > 100 µM | > 100 µM | > 100 µM |  | > 100 µM |  |  |  |  | > 100 µM |  |  |  |  |  | 
CC(=O)OC1CC[C@@]2(C)C(CC(OC3OC(CO)C(O)C(O)C3O)[C@]3(C)C2CCC24CC23CC[C@H]4C(C)CC(O)[C@@H](O)C(C)(C)O)C1(C)C (stereo not given in full) | > 50 µM | > 50 µM | 18.8 µM | 24.8 µM | > 50 µM | 16.2 µM | 30.7 µM | 30.1 µM | 17.4 µM |  |  |  |  |  |  |  |  |  |  | 
COc1ccc(OC)c(-c2cc(-c3ccc(Cl)cc3)nn2-c2ccc(S(N)(=O)=O)cc2)c1 | 93 µM | 44.4 µM |  | 3.72 µM | 28.3 µM | 45.3 µM | 27.1 µM |  |  |  | 10.6 µM | 1.72 µM | 6.05 µM | 19 µM | 13.4 µM | 7.99 µM | 13.2 µM |  | 17.2 µM | 
COc1cc(OC)c(Oc2cccc(OC)c2OC)c(OC)c1 | > 100 µM | > 100 µM |  |  | > 100 µM | > 100 µM | > 100 µM |  | > 100 µM |  |  |  |  |  |  |  |  |  |  | 
CC(C)(C)NC(=O)C12C3C4C1C1C2C3C41I (stereo not given) | > 100 µM | > 100 µM | > 100 µM | > 100 µM | > 100 µM | > 100 µM | > 100 µM |  | > 100 µM |  |  |  |  |  |  |  |  |  |  | 
C[N+](C)(C)CC(=O)NC(=O)N/N=C\C(CC#N)CN(Cc1ccccc1)Cc1ccccc1 (stereo not given) | > 100 µM | > 100 µM | > 100 µM |  | > 100 µM | > 100 µM | > 100 µM | > 100 µM | > 100 µM |  |  |  |  |  |  |  |  |  |  | 
O=C1/C=C(/c2ccc(O)cc2)[C@H](O)Cc2ccc(OC3OC(CO)C(O)C(O)C3O)cc2O1 (stereo not given in full) (tested in a mixture with another compound) | > 100 µM | > 100 µM | > 100 µM | > 100 µM | > 100 µM | > 100 µM | > 100 µM |  | > 100 µM |  |  |  |  |  |  |  |  |  |  | 
COc1ccc(/C(C#N)=C/c2nc3c(N4CCOCC4)nc(Cl)nc3n2C)cc1OC | 1.99 µM | 2.17 µM | 2.01 µM | 0.315 µM | 2.74 µM | 1.28 µM | 1.61 µM |  | 1.51 µM | < 0.01 µM | < 0.01 µM | < 0.01 µM | < 0.0133 µM | 2.46 µM | < 0.01 µM | < 0.01 µM | < 0.01 µM |  | < 0.01 µM | < 0.0152 µM
NC(N)=Nc1nc2cc(N)ccc2o1 | > 100 µM | > 100 µM | > 100 µM |  | > 100 µM | > 100 µM | > 100 µM |  | > 100 µM |  |  |  |  |  |  |  |  |  |  | 
Cc1cc(C)c(-c2noc(-c3ccc(Cl)cc3)c2C2=NCCN2)c(C)c1 | 32.1 µM | 27.6 µM | 37.7 µM | 50.6 µM | 36.2 µM |  | 29.3 µM | 45.1 µM | 34.3 µM |  |  |  |  |  |  |  |  |  |  | 
COC(=O)C1=C(SC)SC2(C(=O)OC)C3C=C(C)C4C(N13)C42C(=O)OC (stereo not given) | > 100 µM | > 100 µM | > 100 µM | > 100 µM | > 100 µM | > 100 µM | > 100 µM | > 100 µM | > 100 µM |  |  |  |  |  |  |  |  |  |  | 
O=C(N/C(=C\c1cc(Cl)ccc1Cl)c1nc2ccccc2[nH]1)c1ccccc1 |  | > 100 µM | > 100 µM |  | 96.9 µM | > 100 µM | 35.7 µM | 64.4 µM | > 100 µM |  |  |  |  |  |  |  |  |  |  | 
N#CC1=C(N)NC(=S)NC1c1ccc(-c2ccc(-c3nc4ccccc4s3)cc2)o1 (stereo not given) | 25.2 µM | > 50 µM |  | > 50 µM | > 50 µM | > 50 µM | > 50 µM |  | 32.2 µM | 11.8 µM | 10.4 µM | 32.8 µM | 16.3 µM | > 50 µM | 33.2 µM | 40.3 µM | > 50 µM |  | 26.9 µM | 

From PubChem BioAssay (NCI)
